Reference: patent US20230365592A1 (Agios Pharmaceuticals, Inc., priority 2022, published 2023)

target: T1, human PAH with the R408W mutation (Homo sapiens, UniProt P00439, R408W); assay: Cell Based Phenylalanine Flux Assay; conditions: A375 cells expressing human PAH R408W; 24 hrs compound incubation; 13C-Tyrosine by LC-MS; average where tested multiple times; read-out: AC50;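 further: after compound treatment, cells received sepiapterin plus isotope-labelled Phenylalanine for 4 hours, then labelled Tyrosine in the medium was quantified, 10-point 2-fold dilution series run in duplicate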
T1 construct: expressed in transfected cells
T1 sequence (P00439 1-452 R408W): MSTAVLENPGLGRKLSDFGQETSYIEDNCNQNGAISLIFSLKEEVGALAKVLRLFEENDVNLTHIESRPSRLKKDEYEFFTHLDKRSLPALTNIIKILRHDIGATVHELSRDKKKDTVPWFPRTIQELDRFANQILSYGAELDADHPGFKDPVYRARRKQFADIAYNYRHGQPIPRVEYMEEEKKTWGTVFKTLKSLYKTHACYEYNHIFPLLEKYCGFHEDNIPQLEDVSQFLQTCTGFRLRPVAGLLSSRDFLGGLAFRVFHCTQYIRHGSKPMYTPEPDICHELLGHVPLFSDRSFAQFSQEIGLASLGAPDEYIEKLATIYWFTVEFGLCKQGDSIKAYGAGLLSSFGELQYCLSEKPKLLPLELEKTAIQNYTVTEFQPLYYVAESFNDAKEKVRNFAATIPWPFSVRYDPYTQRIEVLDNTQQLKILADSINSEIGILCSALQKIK
Experimental: Compounds were resuspended in DMSO, and 2-fold serial dilutions were performed to generate a 10-point dose curve. Compounds were added to plated cells in a total volume of 100 µl, and a final DMSO concentration of 0.5%. Each compound was tested in duplicate. Following compound addition, cells were placed in a 5% CO2, 37° C. tissue culture incubator for 24 hrs. After the incubation period, 20 µM sepiapterin and 800 µM 13C9,15N-Phenylalanine were added. After 4 hours, cell media was removed. An aliquot of 10 µl of cell media was combined with 200 µl of extraction buffer (80% acetonitrile/20% H2O) for each well. Determination of ^13C-Tyrosine concentration was assessed by liquid chromatography mass spectrometry.
Where a compound was tested multiple times, the average value of the tests is reported.

First: Cn1cc(-c2nnc(C(=O)N3CCc4[nH]cnc4[C@H]3c3cc4ccccn4n3)s2)cn1 [Example 2045, (S)-(5-(1-methyl-1H-pyrazol-4-yl)-1,3,4-thiadiazol-2-yl)(4-(pyrazolo[1,5-a]pyridin-2-yl)-1,4,6,7-tetrahydro-5H-imidazo[4,5-c]pyridin-5-yl)methanone]
Second: Cc1cccn2nc([C@H]3c4nc[nH]c4CCN3C(=O)c3nnc(-c4cnn(C)c4)s3)cc12 [Example 2046, (R)-(5-(1-methyl-1H-pyrazol-4-yl)-1,3,4-thiadiazol-2-yl)(4-(4-methylpyrazolo[1,5-a]pyridin-2-yl)-1,4,6,7-tetrahydro-5H-imidazo[4,5-c]pyridin-5-yl)methanone]
The AC50 of the first is lower: 0.5 to 1 µM for the first, greater than 5 µM for the second.

Compared with `Cc1cccn2nc([C@@H]3c4nc[nH]c4CCN3C(=O)c3nnc(-c4cnn(C)c4)s3)cc12` [Example 2047, (S)-(5-(1-methyl-1H-pyrazol-4-yl)-1,3,4-thiadiazol-2-yl)(4-(4-methylpyrazolo[1,5-a]pyridin-2-yl)-1,4,6,7-tetrahydro-5H-imidazo[4,5-c]pyridin-5-yl)methanone], `Cc1cccn2nc([C@@H]3c4nc[nH]c4CCN3C(=O)c3oc(-c4cnn(C)c4)nc3C3CC3)cc12` [Example 2074] is lower in AC50: 0.5 to 1 µM for the first, less than 0.5 µM for the second.

First: O=C(c1nc2ccccc2o1)N1CCc2[nH]cnc2[C@H]1c1cc2ccccn2n1 [Example 2048, (S)-benzo[d]oxazol-2-yl(4-(pyrazolo[1,5-a]pyridin-2-yl)-1,4,6,7-tetrahydro-5H-imidazo[4,5-c]pyridin-5-yl)methanone]
Second: O=C(c1nc2ccccc2o1)N1CCc2[nH]cnc2[C@@H]1c1cc2ccccn2n1 [Example 2049, (R)-benzo[d]oxazol-2-yl(4-(pyrazolo[1,5-a]pyridin-2-yl)-1,4,6,7-tetrahydro-5H-imidazo[4,5-c]pyridin-5-yl)methanone]
The AC50 of the first is lower: 0.5 to 1 µM for the first, greater than 5 µM for the second.

Compared with `O=C(c1nc2ccccc2o1)N1CCc2[nH]cnc2[C@@H]1c1cc2c(F)cccn2n1` [Example 2051, (R)-benzo[d]oxazol-2-yl(4-(4-fluoropyrazolo[1,5-a]pyridin-2-yl)-1,4,6,7-tetrahydro-5H-imidazo[4,5-c]pyridin-5-yl)methanone], `O=C(c1nc2ccccc2o1)N1CCc2[nH]cnc2[C@H]1c1cc2c(C(F)F)cccn2n1` [Example 2052, (S)-benzo[d]oxazol-2-yl(4-(4-(difluoromethyl)pyrazolo[1,5-a]pyridin-2-yl)-1,4,6,7-tetrahydro-5H-imidazo[4,5-c]pyridin-5-yl)methanone] is lower in AC50: greater than 5 µM for the first, 0.5 to 1 µM for the second.

First: O=C(c1nc2ccccc2o1)N1CCc2[nH]cnc2[C@@H]1c1cc2c(C(F)F)cccn2n1 [Example 2053, (R)-benzo[d]oxazol-2-yl(4-(4-(difluoromethyl)pyrazolo[1,5-a]pyridin-2-yl)-1,4,6,7-tetrahydro-5H-imidazo[4,5-c]pyridin-5-yl)methanone]
Second: O=C(c1nc2ccccc2o1)N1CCc2[nH]cnc2[C@H]1c1cc2c(C(F)(F)F)cccn2n1 [Example 2054, (S)-benzo[d]oxazol-2-yl(4-(4-(trifluoromethyl)pyrazolo[1,5-a]pyridin-2-yl)-1,4,6,7-tetrahydro-5H-imidazo[4,5-c]pyridin-5-yl)methanone]
The AC50 of the first is higher: greater than 5 µM for the first, 0.5 to 1 µM for the second.

First: O=C(c1nc2ccccc2o1)N1CCc2[nH]cnc2[C@@H]1c1cc2c(C(F)(F)F)cccn2n1 [Example 2055, (R)-benzo[d]oxazol-2-yl(4-(4-(trifluoromethyl)pyrazolo[1,5-a]pyridin-2-yl)-1,4,6,7-tetrahydro-5H-imidazo[4,5-c]pyridin-5-yl)methanone]
Second: O=C(c1ncco1)N1CCc2[nH]cnc2[C@H]1c1cc2c(C(F)(F)F)cccn2n1 [Example 2078, (S)-oxazol-2-yl(4-(4-(trifluoromethyl)pyrazolo[1,5-a]pyridin-2-yl)-1,4,6,7-tetrahydro-5H-imidazo[4,5-c]pyridin-5-yl)methanone]
The AC50 of the first is higher: greater than 5 µM for the first, 0.5 to 1 µM for the second.

Going from `FC(F)(F)c1nnc(N2CCc3[nH]cnc3[C@@H]2c2cc3c(C4CC4)cccn3n2)o1` [Example 2056, (R)-2-(4-(4-cyclopropylpyrazolo[1,5-a]pyridin-2-yl)-1,4,6,7-tetrahydro-5H-imidazo[4,5-c]pyridin-5-yl)-5-(trifluoromethyl)-1,3,4-oxadiazole] to `FC(F)(F)c1nnc(N2CCc3[nH]cnc3[C@H]2c2cc3c(C4CC4)cccn3n2)o1` [Example 2057, (S)-2-(4-(4-cyclopropylpyrazolo[1,5-a]pyridin-2-yl)-1,4,6,7-tetrahydro-5H-imidazo[4,5-c]pyridin-5-yl)-5-(trifluoromethyl)-1,3,4-oxadiazole], the AC50 falls from greater than 5 µM to less than 0.5 µM.

`c1cc(C2CC2)c2cc([C@@H]3c4nc[nH]c4CCN3c3nnc(C4CC4)o3)nn2c1` [Example 2059, (S)-2-cyclopropyl-5-(4-(4-cyclopropylpyrazolo[1,5-a]pyridin-2-yl)-1,4,6,7-tetrahydro-5H-imidazo[4,5-c]pyridin-5-yl)-1,3,4-oxadiazole] and `CC(C)(F)c1nnc(C(=O)N2CCc3[nH]cnc3[C@H]2c2cc3c(C4CC4)cccn3n2)o1` [Example 2061, (S)-(4-(4-cyclopropylpyrazolo[1,5-a]pyridin-2-yl)-1,4,6,7-tetrahydro-5H-imidazo[4,5-c]pyridin-5-yl)(5-(2-fluoropropan-2-yl)-1,3,4-oxadiazol-2-yl)methanone] fall in the same range of AC50: 0.5 to 1 µM for the first, 0.5 to 1 µM for the second.

`Fc1cccc(F)c1-c1nnc(N2CCc3[nH]cnc3[C@H]2c2cc3c(Cl)cccn3n2)o1` [Example 2063, (S)-2-(4-(4-chloropyrazolo[1,5-a]pyridin-2-yl)-1,4,6,7-tetrahydro-5H-imidazo[4,5-c]pyridin-5-yl)-5-(2,6-difluorophenyl)-1,3,4-oxadiazole] and `Cc1nnc(N2CCc3[nH]cnc3[C@H]2c2cc3c(C(C)C)cccn3n2)o1` [Example 2083, (S)-2-(4-(4-isopropylpyrazolo[1,5-a]pyridin-2-yl)-1,4,6,7-tetrahydro-5H-imidazo[4,5-c]pyridin-5-yl)-5-methyl-1,3,4-oxadiazole] cannot be ordered by AC50: less than 0.5 µM for the first, less than 0.5 µM for the second.

First: Cc1c(-c2ncc(C(=O)N3CCc4[nH]cnc4[C@H]3c3cc4c(F)cccn4n3)o2)cnn1C [Example 2066, (S)-(2-(1,5-dimethyl-1H-pyrazol-4-yl)oxazol-5-yl)(4-(4-fluoropyrazolo[1,5-a]pyridin-2-yl)-1,4,6,7-tetrahydro-5H-imidazo[4,5-c]pyridin-5-yl)methanone]
Second: Cc1c(-c2ncc(C(=O)N3CCc4[nH]cnc4[C@@H]3c3cc4c(F)cccn4n3)o2)cnn1C [Example 2067, (R)-(2-(1,5-dimethyl-1H-pyrazol-4-yl)oxazol-5-yl)(4-(4-fluoropyrazolo[1,5-a]pyridin-2-yl)-1,4,6,7-tetrahydro-5H-imidazo[4,5-c]pyridin-5-yl)methanone]
The AC50 of the first is lower: 0.5 to 1 µM for the first, greater than 5 µM for the second.

`Cc1c(-c2ncc(C(=O)N3CCc4[nH]cnc4[C@H]3c3cc4c(C(F)F)cccn4n3)o2)cnn1C` [Example 2068, (S)-(4-(4-(difluoromethyl)pyrazolo[1,5-a]pyridin-2-yl)-1,4,6,7-tetrahydro-5H-imidazo[4,5-c]pyridin-5-yl)(2-(1,5-dimethyl-1H-pyrazol-4-yl)oxazol-5-yl)methanone] and `O=C(c1ncco1)N1CCc2[nH]cnc2[C@H]1c1cc2c(C(F)F)cccn2n1` [Example 2076, (S)-(4-(4-(difluoromethyl)pyrazolo[1,5-a]pyridin-2-yl)-1,4,6,7-tetrahydro-5H-imidazo[4,5-c]pyridin-5-yl)(oxazol-2-yl)methanone] fall in the same range of AC50: 0.5 to 1 µM for the first, 0.5 to 1 µM for the second.

First: Cc1cccc2cc([C@@H]3c4nc[nH]c4CCN3C(=O)c3ocnc3C3CC3)nn12 [Example 2070, (S)-(4-cyclopropyloxazol-5-yl)(4-(7-methylpyrazolo[1,5-a]pyridin-2-yl)-1,4,6,7-tetrahydro-5H-imidazo[4,5-c]pyridin-5-yl)methanone]
Second: Cn1cc(-c2nc(C3CC3)c(C(=O)N3CCc4[nH]cnc4[C@@H]3c3cc4c(F)cccn4n3)o2)cn1 [Example 2072, (R)-(4-cyclopropyl-2-(1-methyl-1H-pyrazol-4-yl)oxazol-5-yl)(4-(4-fluoropyrazolo[1,5-a]pyridin-2-yl)-1,4,6,7-tetrahydro-5H-imidazo[4,5-c]pyridin-5-yl)methanone]
The AC50 of the first is lower: less than 0.5 µM for the first, greater than 5 µM for the second.

Compared with `Cn1cc(-c2nc(C3CC3)c(C(=O)N3CCc4[nH]cnc4[C@H]3c3cc4c(F)cccn4n3)o2)cn1` [Example 2073, (S)-(4-cyclopropyl-2-(1-methyl-1H-pyrazol-4-yl)oxazol-5-yl)(4-(4-fluoropyrazolo[1,5-a]pyridin-2-yl)-1,4,6,7-tetrahydro-5H-imidazo[4,5-c]pyridin-5-yl)methanone], `O=C(C1CCC1)N1CCc2[nH]cnc2[C@H]1c1cc2c(F)cccn2n1` [Example 2080, (S)-cyclobutyl(4-(4-fluoropyrazolo[1,5-a]pyridin-2-yl)-1,4,6,7-tetrahydro-5H-imidazo[4,5-c]pyridin-5-yl)methanone] is lower in AC50: 0.5 to 1 µM for the first, less than 0.5 µM for the second.

`O=C(c1ncco1)N1CCc2[nH]cnc2[C@@H]1c1cc2c(C(F)F)cccn2n1` [Example 2077, (R)-(4-(4-(difluoromethyl)pyrazolo[1,5-a]pyridin-2-yl)-1,4,6,7-tetrahydro-5H-imidazo[4,5-c]pyridin-5-yl)(oxazol-2-yl)methanone] and `CC(C)c1cccn2nc([C@H]3c4nc[nH]c4CCN3c3nnc(C(F)F)o3)cc12` [Example 2084, (R)-2-(difluoromethyl)-5-(4-(4-isopropylpyrazolo[1,5-a]pyridin-2-yl)-1,4,6,7-tetrahydro-5H-imidazo[4,5-c]pyridin-5-yl)-1,3,4-oxadiazole] cannot be ordered by AC50: greater than 5 µM for the first, greater than 5 µM for the second.
